Like-named read-outs stand apart in the source and are kept apart here.
How the values were obtained:
mGluR1 [1] = system: mGluR1; design: method as in PMID 23135321; details: PET; cited from earlier work
[2] = system: ABCB1 (permeability glycoprotein (P-gp)) and ABCG2 (breast cancer resistance protein (BCRP)); design: method as in PMID 23135321; details: genetic knockout mice for ABCB1 and ABCG2; cited from earlier work
human mGluR1s = target: human mGluR1s; design: method as in PMID 23135321; details: cited from earlier work
other human mGluRs = system: other human mGluRs; design: method as in PMID 23135321; details: cited from earlier work
[3] = Brain exposure comparison of five radioligands; format: in vivo, human
Procedure: Another complicating factor is low delivery to brain (i.e., low drug exposure), which may have cause low brain uptake. We compared five different radioligands from previous studies with regard to exposure to brain (Table 3) and measured the area under the curve of plasma concentration vs. time from 0 to 20 min. […] The effective exposure was thus named because only the free concentration of drug can cross the blood–brain barrier. ^11C-LY2428703 had the highest exposure value among the tracers tested. This high exposure was due to the slow wash-out of the tracer from the vascular compartment and to negligible metabolism in plasma, that is, parent radioligand represented 99% of plasma radioactivity even at the end of the 2-h scanning session.

[4] = design: method as in earlier work; details: cited from earlier work; for Exposure SUV (0 to 20): AUC of plasma concentration vs. time, 0 to 20 min, data of previous studies; for fp: human plasma; for Brain peak SUV: human
mGluR1 [5] = target: mGluR1; design: method as in PMID 23135321; details: rats; read-out: in vitro affinity; cited from earlier work
[6] = cited from earlier work
[7] = fp × AUC0 to 20, comparators from data of refs 22, 19, 23, 24

Structure (SMILES) | Exposure SUV (0 to 20) [4] [SUV] | fp [4] [%] | Brain peak SUV [4] [SUV] | further results
COc1ccc(-c2nsc(NC(=O)[C@@H]3C[C@H]3C)c2C)cc1 [LY2428703] | – | – | – | signal in rat cerebellum (mGluR1 [1]): large specific and displaceable signal; substrate for efflux transporters at the blood–brain barrier [2]: not a substrate; Ki (human mGluR1s; females, read-out: Ki): 1.4 ± 0.4 nM; Ki (human mGluR1s; males, read-out: Ki): 2.7 ± 0.5 nM; affinity for other human mGluRs (other human mGluRs): no significant affinity
[11CH3]Oc1ccc([C@@H]2CNC(=O)C2)cc1OC1CCCC1 [^11C-( R )-rolipram] | 124.9 | 6.4 | 2 to 2.5 | Effective exposure (E × fp) ([3]; in vivo): 8.0
COc1ccc(-c2nsc(NC(=O)[C@@H]3C[C@H]3C)c2C)cc1 [^11C-LY2428703] | – | – | – | Ki (human mGluR1s; humans, read-out: in vitro affinity): ~2 nM; Ki (mGluR1 [5]): 0.6 nM
[11CH3]NC(=O)[C@@H](Cc1ccccc1F)CN1CCC2(CC1)OCCc1cc(F)sc12 [^11C-NOP1A] | 36.7 | 10.1 | 5 to 7 | Effective exposure (E × fp) [3, 7]: 3.7
CC(C)Nc1cc(-c2csc(N(C)C(=O)c3ccc([18F])cc3)n2)ncn1 [^18F-FITM, reference compound] | – | – | – | LogD [6]: 1.5
C[C@@H](N[C@@H]1C[C@H](c2cccc(OC[18F])c2)N(c2ccc(C(F)(F)F)cc2)C1=O)c1ccccc1 [^18F-FMPEP] | 47.8 | 0.63 | 3 to 4 | Effective exposure (E × fp) [3, 7]: 0.30
N#Cc1cc(F)cc(C#Cc2csc(C[18F])n2)c1 [^18F-SP203] | 37.0 | 5.2 | ~6 | Effective exposure (E × fp) ([3]; in vivo): 1.9

Reference: PMC3683333, “^11C-LY2428703, a positron emission tomographic radioligand for the metabotropic glutamate receptor 1, is unsuitable for imaging in monkey and human brains” (EJNMMI Research, 2013)
